Experimental data reported in PubChem BioAssay (NCI).
Several values for one entry are separate records, joined by “and”; a condition that tells them apart may be missing. Equal entries are not always repeated.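 The compound was tested at five concentrations on cells cultured in 96-well plates, with a 48-hour exposure period. At the GI50, growth is halved. At the TGI there is no net growth.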

Test system: MDA-MB-468 breast
Assay: NCI-60 cell line screen, 48 h

## COC(=O)[C@@H](NC(=O)NC(=O)NC(=O)CI)C(C)C
  GI50: 3.89 µM
  TGI: 16 µM

## O=S(=O)(Nc1ncccn1)c1ccc(N=Nc2ccc(O)c3ncccc23)cc1
  GI50: 8.83 µM
  TGI: 31.2 µM

## COc1cc2c(cc1OCCCN1CCN(CCCOc3cc4c(cc3OC)C(=O)N3CCC[C@H]3C=N4)CC1)C=CC(C)(C)O2
  GI50: 0.469 µM
  TGI: 2.45 µM

## Nc1ccn(C2OC(CO)C(O)C2F)c(=O)n1 (stereo not drawn)
  GI50: > 5000 µM
  TGI: > 5000 µM

## CC/C(Cc1ccccc1)=C(\c1ccc(OCCN2CCCCCC2)cc1)c1ccc(OC(=O)NCc2ccccc2)cc1
  GI50: 2.03 µM
  TGI: 8.15 µM

## Cc1c2cc[nH]c(=O)c2c(C)c2c1[nH]c1cc(OCCN3CCN(C)CC3)ccc12
  GI50: 0.355 µM
  TGI: 1.87 µM

## Cc1c2cnccc2c(C)c2c1c1cc(C3OCCCO3)ccc1n2C
  GI50: 0.26 µM
  TGI: 0.928 µM

## Cc1ccccc1NC(=S)Nc1ccccn1
  GI50: 11.8 µM
  TGI: 81.2 µM

## CN1CCN(c2ccc(C(=O)Nc3n[nH]c4ccc(Cc5cc(F)cc(F)c5)cc34)c(NC3CCOCC3)c2)CC1
  GI50: 1.35 µM
  TGI: 3.09 µM and 2.91 µM

## Cc1ccc(C(=O)N(CCCN)[C@@H](c2nc3cc(Cl)ccc3c(=O)n2Cc2ccccc2)C(C)C)cc1
  GI50: < 0.01 µM
  TGI: < 0.01 µM

## CN(C)CCCOc1ccccc1NC1=C(Cl)C(=O)C(Nc2ccccc2OCCCN(C)C)=C(Cl)C1=O
  GI50: 0.175 µM
  TGI: 0.352 µM

## O=C(/C=C/c1ccc(B(O)O)cc1)/C=C/c1ccc(B(O)O)cc1
  GI50: 1.72 µM
  TGI: 4.34 µM

## Cn1cc(-c2nonc2-c2c[nH]c3ccccc23)c2ccccc21
  GI50: 0.304 µM
  TGI: 3.12 µM

## COC1=CC(c2ccc[nH]2)=N/C1=C\c1[nH]c(C)c(C(=O)OCc2ccccc2)c1C
  GI50: 0.0584 µM
  TGI: 0.73 µM

## COc1cc(-c2nn3c(/C=C4/C(=O)Nc5ccccc54)c(-c4ccc(C)cc4)nc3s2)cc(OC)c1OC
  GI50: 4.84 µM
  TGI: 30.6 µM

## FC(F)(F)c1ccc(-c2nc(-c3nc4cc(Cl)c(Cl)cc4[nH]3)c3ccccn23)cc1
  GI50: 3.05 µM
  TGI: > 100 µM

## CN1CCc2cc3c(cc2C1O)OCO3 (stereo not drawn)
  GI50: 16 µM and > 100 µM
  TGI: 34.4 µM and > 100 µM

## C=CC(=O)Nc1ccc(Nc2nccc(-c3ccc(N4CCCC4)c(C#N)c3)n2)cc1
  GI50: 7.43 µM
  TGI: > 25 µM

## CC1=C([Se]CC(OC(=O)[C@@H](CSSC(C)(C)C)NC(=O)OC(C)(C)C)C(=O)NC(C)(C)C)C(=O)c2ccccc2C1=O (stereo partly drawn)
  GI50: 1.66 µM
  TGI: 3.77 µM

## OCC1OC(c2scc3c(=S)nc[nH]c23)C(O)C1O (stereo not drawn)
  GI50: 8.39 µM
  TGI: > 100 µM

## CC(=O)C1=C(O)C=C2Oc3c(C(=O)/C=C/c4cc(C(F)(F)F)cc(C(F)(F)F)c4)c(O)c(C)c(O)c3[C@]2(C)C1=O
  GI50: 1.29 µM
  TGI: 4.46 µM

## O=[N+]([O-])c1ccc(Nc2ccccc2-c2ccccc2)c2nonc12
  GI50: 5.2 µM
  TGI: 30.5 µM

## O=P([O-])(O)OP(=O)([O-])O.[NH-][C@H]1CCCC[C@@H]1[NH-].[OH-].[OH-].[Pt+4]
  GI50: 18.8 µM
  TGI: 39.9 µM

## Cc1cc(C)nc(NC(N)=NCCc2ccccc2)n1
  GI50: 1.91 µM
  TGI: 8.95 µM
